# Test results taken from US20080003215A1, “Use of pre-dissolved pristinamycin-type and polyether ionophore type antimicrobial agents in the production of ethanol” (priority 2006, published 2008).
# Test system: consortium of 6 Lactobacilli spp cultures
# Experiment: Corn mash fermentation without yeast, inoculated with Lactobacillus consortium, well-mixed or poorly-mixed fermentors
# Assay type: cell-based, Lactobacillus sp
# Source text: The purpose of this experiment is to determine the efficacy of virginiamycin in three forms (DMSO-solubilized virginiamycin, Belgium powdered virginiamycin, and Brazilian powdered virginiamycin) in real corn mash fermentations against a consortium of Lactobacillus sp bacteria. No yeasts will be added. The efficacy of these forms of virginiamycin will be further tested in fermentors that will be properly (continuously) mixed and in fermentors that have improper mixing—simulating more closely the fermentor mixing conditions seen in field ethanol plants.
# The first step in testing was the preparation of corn mash (i.e., Gelatinization, Liquefaction, and Saccharification). […]
# The mash temperature was then decreased to 60° C. at which point 2 L water and 200 ml G-Zyme™ 480 Ethanol glucoamylase (available from Genencor, Rochester, N.Y.) were added. […] No bacterial contamination was detected in any test incubated mashes.
# For each 7.6 L sterile container of mash, a 60 g aliquot was removed and divided into two 30 g sub-samples within 50 ml centrifuge tubes. […] The specific gravity of each subsample was then determined using a digital density meter (DMA-45; Anton Paar KG, Graz, Austria) which was temperature regulated to 4° C. If the readings on the density meter were off-scale, then a precise dilution of the subsamples were done and then re-read in the density meter. […]
substance,measurement,setting,value
virginiamycin,Lactobacilli killed,"pre-solubilized agent, within 6 hours",at least 90%
same,Lactobacillus count,"well mixed fermentors (150 RPM), 1 ppm virginiamycin, inoculum 5E5 CFU/ml, up to 48 h",≤ 1 E6 CFU/ml
